Measured values published in ChEMBL document CHEMBL1131786, “Synthesis of probes for the active site of leucine dehydrogenase” (Bioorg Med Chem Lett, 1999).

What was measured:
[1] = system: Bacillus; test: Compound was evaluated for the inhibition of Leucine dehydrogenase of Bacillus species; details: concentration not given here
[2] = system: Sporosarcina; test: Compound was evaluated for the inhibition of Phenylalanine dehydrogenase of Sporosarcina species; details: concentration not given here

inhibition [1] [%]	inhibition [2] [%]	Compound
8	–	COCO[C@H](C)C(=O)C(=O)O
–	61	C[C@@H](O)[C@H](N)C(=O)O
93	–	COCO[C@@H](C)C(=O)C(=O)O
–	53	C[C@H](O)[C@H](N)C(=O)O
